Test results as given in PMC10498667 (Chemical Science, 2023).
Several values for one entry are separate records, joined by “and”; a condition that tells them apart may be missing. Equal values may be shown once.

How the values were obtained:
Aβ42 = biological target: T1, Aβ42 (Homo sapiens, UniProt P05067); assay: Aβ42 aggregation inhibition experiments (gel/western blot, TEM); assay type: biochemical; conditions: flavonoid 50 μM, 24 h
T1 construct: purchased Peptide Institute, Inc. (Osaka, Japan)
T1 sequence (P05067 672-713 limits assumed): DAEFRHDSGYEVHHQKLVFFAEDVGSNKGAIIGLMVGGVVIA
Procedure: (§1) To verify whether a series of nine flavonoids can modulate the aggregation of Aβ with and without metal ions, the molecular weight (MW) distribution and morphology of the resultant Aβ species were determined by gel electrophoresis with western blotting (gel/western blot) using an anti-Aβ antibody (6E10) and transmission electron microscopy (TEM), respectively. Two types of experiments were carried out employing two major Aβ isoforms, i.e., Aβ42 and Aβ40:[25] (i) inhibition studies to identify the effect of 1–5, 1a, 1b, 4a, and 4b on the formation of Aβ aggregates; (ii) disaggregation studies to evaluate if the flavonoids with reactivities towards Aβ aggregation in inhibition studies can disassemble preformed Aβ aggregates or modulate their further aggregation, as illustrated in Fig. 4 and S5–S9. ^† Moreover, the solutions containing the flavonoids and Cu(II) were probed by electronic absorption (Abs) spectroscopy to monitor their metal binding. […] As expected, no Abs change of 1a and 4a composed of methoxy groups on the A ring was detected by addition of Cu(II). […]
(§2) Ab Aggregation Experiments. Ab was dissolved in ammonium hydroxide [1% w/w NH4OH (aq)] and the resulting solution was aliquoted, lyophilized overnight, and stored at –80 °C. A stock solution of Ab was then prepared by dissolving the lyophilized peptide with NH4OH (1% w/w, aq; 10 µL) and diluting with ddH2O. All Ab samples were prepared following previously reported procedures.21,22 The concentration of the peptide solution was determined by measuring its […]
(§3) solution (20 mM HEPES, pH 7.4, 150 mM NaCl) was used for preparing Ab samples. For the inhibition studies, flavonoids (final concentration, 50 µM; 1% v/v DMSO) were added to the samples of Ab (25 µM) in the absence and presence of CuCl2 or ZnCl2 (25 µM) followed by incubation for 24 h at 37 °C with constant agitation. For the disaggregation studies, Ab (25 µM) was incubated with and without CuCl2 or ZnCl2 (25 µM) for 24 h at 37 °C with constant agitation to generate preformed Ab aggregates. The resultant Ab aggregates were then treated with flavonoids (50 µM) and incubated for additional 24 h with constant agitation. For the additional disaggregation experiments, preformed Ab42 aggregates (25 µM) or Ab42 seeds (10% v/v) with or without metal ions (25 µM for CuCl2 and ZnCl2) were incubated with flavonoids (50 µM) for 24 h with constant agitation. The resultant Ab aggregates were then treated with freshly prepared Ab42 […]
(§4) (25 µM) and incubated for additional 24 h with constant agitation.
(§5) Gel/Western Blot. The resultant Ab species from the aggregation experiments were analyzed by gel/Western blot using an anti-Ab antibody (6E10, Covance, Princeton, NJ, USA).21,22 Each sample (10 µL) was separated on a 10–20% tricine gel (Invitrogen). Following separation, the proteins were transferred onto nitrocellulose membranes and blocked with bovine serum albumin (BSA, 3% w/v; Sigma-Aldrich) in Tris-buffered saline (TBS) containing 0.1% v/v Tween-20 (Sigma-Aldrich) (TBS-T) for 4 h at room temperature or overnight at 4 °C. The membranes were incubated with 6E10 (1:2,000) in the solution of BSA (2% w/v in TBS-T) for 4 h at room temperature. […] A homemade ECL kit21–23 was used to visualize gel/Western blots on a ChemiDoc MP Imaging System (Bio-Rad).
(§6) TEM. Samples for TEM were prepared following previously reported methods.22,24 Glow-discharged grids (Formvar/Carbon 300-mesh; Electron Microscopy Sciences, Hatfield, PA, USA) were treated with Ab samples (25 µM; 7.5 µL) for 2 min at room temperature. Excess sample was removed using filter paper followed by washing with ddH2O (3x). Each grid incubated with uranyl […]

metal-free Aβ42 = biological target: T2, metal-free Aβ42 (Homo sapiens, UniProt P05067); assay: CD spectroscopy of metal-free Aβ42 (BeStSel); conditions: Aβ42 100 μM; flavonoid 200 μM; 37 °C; 24 h
T2 construct: purchased Peptide Institute, Inc. (Osaka, Japan)
T2 sequence (P05067 672-713 limits assumed): as above
Procedure: CD Spectroscopy. Metal-free Ab42 (100 µM) was incubated with and without 5, 4b, and 6 (200 µM) for 24 h in 20 mM HEPES, pH 7.4, 150 mM NaF at 37 °C with constant agitation (250 rpm).
CD spectra were collected in the range from 195 nm to 255 nm. The digital integration time, the bandwidth, and the scanning speed were 4 s, 2 nm, and 20 nm/min, respectively. Each spectrum was smoothed by Fourier transforms. The change in the secondary structure of metal-free Ab42 […]
treated with a flavonoid was analyzed following the previously reported BeStSel method.25 The measurements were conducted in triplicate. […]
mM HEPES, pH 7.4, 150 mM NaCl) with or without Ab40 (25 µM) in the absence and presence of CuCl2 or ZnCl2 (25 µM). Abs spectra of the samples were collected for 24 h at 37 °C.
6c [3-(3,4-Dihydroxyphenyl)-5,6,7-trimethoxy-4H-chromen-4-one]. […] After 4 h, the reaction mixture was extracted in a solution of ethyl acetate (EtOAc) and saturated sodium acetate (NaOAc; 0.12 g/mL). The organic layer was collected, washed with brine, dried with sodium sulfate ([…]), filtered, and concentrated. The crude product was purified by column chromatography (SiO2; EtOAc:hexanes = 1:1) to yield 6c [Rf = 0.3; yellow powder; 650 mg, 2.0 mmol (yield = 31%)] that was used for the next step without further purification. 1H NMR [400 MHz, […]

[1] = tested on: preformed Aβ42 and Aβ40 aggregates; assay: Disaggregation experiments with preformed Aβ aggregates; assay type: biochemical; conditions: Aβ42 and Aβ40, with and without Cu(II), Zn(II); flavonoid 50 μM; 24 h
Procedure: as §1, §2
as §3, with “agitation.” for “agitation. For the additional disaggregation experiments, preformed Ab42 aggregates (25 µM) or Ab42 seeds (10% v/v) with or without metal ions (25 µM for CuCl2 and ZnCl2) were incubated with flavonoids (50 µM) for 24 h with constant agitation. The resultant Ab aggregates were then treated with freshly prepared Ab42”

Aβ40 = biological target: T3, Aβ40 (Homo sapiens, UniProt P05067); assay: Aβ40 aggregation inhibition experiments (gel/western blot, TEM); assay type: biochemical; conditions: flavonoid 50 μM, 24 h
T3 construct: Ab40 ([…]-; purchased Peptide Institute, Inc. (Osaka, Japan)
T3 sequence (P05067 672-711 limits assumed): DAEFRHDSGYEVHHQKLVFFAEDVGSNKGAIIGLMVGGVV
Procedure: as §1, §2, §3, §4, §5, §6

[2] = Zn(II)–Aβ42, Aβ 25 μM, Zn(II) 25 μM
[3] = Cu(II)–Aβ42, Aβ 25 μM, Cu(II) 25 μM

## O=c1c(-c2ccccc2)coc2cc(O)c(O)c(O)c12 [4b, 5,6,7-trihydroxyisoflavone]
Aβ42; Cu(II)–Aβ42
  morphology of resultant aggregates (TEM): chopped and thin fibrils
Aβ42; [2]
  MW distribution of resultant species (gel/western blot): smearing bands at ca. 25–240 kDa
Aβ42; Zn(II)–Aβ42
  morphology of resultant aggregates (TEM): small amorphous aggregates
Aβ42; metal-free Aβ42 25 μM, 37 °C
  MW distribution of resultant species (gel/western blot): discernably reduced the signal intensity of the bands
Aβ42; metal-free Aβ42
  morphology of resultant aggregates (TEM): smaller fibrils and less structured aggregates
metal-free Aβ42
  Random Coils (%) of metal-free Aβ42: 53.8% and 53.8 (±5.9) %
  Turn (%) of metal-free Aβ42: 10.3%
  α-Helix (%) of metal-free Aβ42: 0.4%
  β-Sheet (%) of metal-free Aβ42: 35.5% and 35.5 (±5.7) %
[1]
  effect on preformed metal-free Aβ and metal–Aβ aggregates: could disassemble preformed metal-free Aβ and metal–Aβ aggregates
Aβ40; Cu(II)–Aβ40
  morphology of resultant aggregates (TEM): both amorphous and fibrillary aggregates
Aβ40; Cu(II)–Aβ40 and Zn(II)–Aβ40
  MW distribution of resultant species (gel/western blot): diverse MW distribution
Aβ40; Zn(II)–Aβ40
  morphology of resultant aggregates (TEM): a bunch of fibrillary species with chopped filamentous aggregates
Aβ40; metal-free Aβ40
  MW distribution of resultant species (gel/western blot): reduced
  morphology of resultant aggregates (TEM): shorter and thinner fibrils

## O=c1cc(-c2ccccc2)oc2cc(O)cc(O)c12 [compound 1, chrysin]
Aβ42; Cu(II)–Aβ42
  morphology of resultant aggregates (TEM): did not indicate any noticeable morphological changes
Aβ42; [2]
  MW distribution of resultant species (gel/western blot): a significant change in the MW distribution was not indicated
Aβ42; Zn(II)–Aβ42
  morphology of resultant aggregates (TEM): did not indicate any noticeable morphological changes
[1]
  effect on preformed metal-free Aβ and metal–Aβ aggregates: less noticeably affected

## O=c1cc(-c2ccccc2)oc2cc(O)c(O)cc12 [compound 2, 6,7-dihydroxyflavone]
Aβ42; Cu(II)–Aβ42
  morphology of resultant aggregates (TEM): did not indicate any noticeable morphological changes
Aβ42; [2]
  MW distribution of resultant species (gel/western blot): a significant change in the MW distribution was not indicated
Aβ42; Zn(II)–Aβ42
  morphology of resultant aggregates (TEM): did not indicate any noticeable morphological changes
[1]
  effect on preformed metal-free Aβ and metal–Aβ aggregates: less noticeably affected

## O=c1cc(-c2ccccc2)oc2ccc(O)c(O)c12 [compound 3, 5,6-dihydroxyflavone]
Aβ42; [3]
  MW distribution of resultant species (gel/western blot): more intense smearing
Aβ42; Cu(II)–Aβ42
  morphology of resultant aggregates (TEM): A mixture of amorphous and small fibrillary aggregates
Aβ42; [2]
  MW distribution of resultant species (gel/western blot): increased signal intensity between ca. 25–75 kDa
Aβ42; Zn(II)–Aβ42
  morphology of resultant aggregates (TEM): small amorphous aggregates
[1]
  effect on preformed metal-free Aβ and metal–Aβ aggregates: the reactivity was shown only in the presence of metal ions
Aβ40; Cu(II)–Aβ40
  morphology of resultant aggregates (TEM): both amorphous and fibrillary aggregates

## O=c1cc(-c2ccccc2)oc2cc(O)c(O)c(O)c12 [compound 4, baicalein]
Aβ42; [3]
  MW distribution of resultant species (gel/western blot): enhanced level of dodecameric or larger Aβ42 aggregates
Aβ42; Cu(II)–Aβ42
  morphology of resultant aggregates (TEM): chopped and thin fibrils
Aβ42; [2]
  MW distribution of resultant species (gel/western blot): smearing bands at ca. 25–240 kDa
Aβ42; Zn(II)–Aβ42
  morphology of resultant aggregates (TEM): chopped fibrils and amorphous assemblies
Aβ42; metal-free Aβ42 25 μM, 37 °C
  MW distribution of resultant species (gel/western blot): discernably reduced the signal intensity of the bands
Aβ42; metal-free Aβ42
  morphology of resultant aggregates (TEM): shorter and thinner fibrils
[1]
  effect on preformed metal-free Aβ and metal–Aβ aggregates: could disassemble preformed metal-free Aβ and metal–Aβ aggregates
Aβ40; Cu(II)–Aβ40
  morphology of resultant aggregates (TEM): both amorphous and fibrillary aggregates
Aβ40; metal-free Aβ40
  MW distribution of resultant species (gel/western blot): reduced
  morphology of resultant aggregates (TEM): shorter and thinner fibrils

## O=c1cc(-c2ccccc2)oc2c(Cl)c(O)c(O)c(O)c12 [compound 5, 8-chlorobaicalein]
Aβ42; Cu(II)–Aβ42
  morphology of resultant aggregates (TEM): A mixture of amorphous and small fibrillary aggregates
Aβ42; [2]
  MW distribution of resultant species (gel/western blot): smearing bands at ca. 25–240 kDa
Aβ42; Zn(II)–Aβ42
  morphology of resultant aggregates (TEM): both amorphous and fibrillary Zn(II)–Aβ42 aggregates
Aβ42; metal-free Aβ42 25 μM, 37 °C
  MW distribution of resultant species (gel/western blot): discernably reduced the signal intensity of the bands
Aβ42; metal-free Aβ42
  morphology of resultant aggregates (TEM): smaller fibrils and less structured aggregates
metal-free Aβ42
  Random Coils (%) of metal-free Aβ42: 19.7% and 19.7 (±15.5) %
  Turn (%) of metal-free Aβ42: 12.5%
  α-Helix (%) of metal-free Aβ42: 1.2%
  β-Sheet (%) of metal-free Aβ42: 66.7% and 66.7 (±15.3) %
[1]
  effect on preformed metal-free Aβ and metal–Aβ aggregates: could disassemble preformed metal-free Aβ and metal–Aβ aggregates
Aβ40; Cu(II)–Aβ40
  morphology of resultant aggregates (TEM): chopped filamentous Cu(II)–Aβ40 aggregates
Aβ40; metal-free Aβ40
  MW distribution of resultant species (gel/western blot): increased the band intensity
  morphology of resultant aggregates (TEM): shorter and thinner fibrils

## O=c1c(-c2ccc(O)c(O)c2)coc2cc(O)c(O)c(O)c12 [compound 6, 3-(3,4-dihydroxyphenyl)-5,6,7-trihydroxy-4H-chromen-4-one]
Aβ42; [3]
  MW distribution of resultant species (gel/western blot): smearing bands from ca. 20–240 kDa were noticeably detected
Aβ42; Cu(II)–Aβ42
  morphology of resultant aggregates (TEM): chopped fibrils
Aβ42; [2]
  MW distribution of resultant species (gel/western blot): smearing bands from ca. 20–240 kDa were noticeably detected
Aβ42; Zn(II)–Aβ42
  morphology of resultant aggregates (TEM): a mixture of amorphous and fibrillary aggregates
Aβ42; metal-free Aβ42 25 μM, 37 °C
  MW distribution of resultant species (gel/western blot): reduced at ca. 4–20 kDa and above ca. 100 kDa
Aβ42; metal-free Aβ42
  morphology of resultant aggregates (TEM): shorter and thinner fibrils
metal-free Aβ42
  Random Coils (%) of metal-free Aβ42: 13.6%
  Turn (%) of metal-free Aβ42: 38.1%
  α-Helix (%) of metal-free Aβ42: 1.5%
  β-Sheet (%) of metal-free Aβ42: 46.7%
[1]
  effect on preformed metal-free Aβ and metal–Aβ aggregates: affected their corresponding preformed Aβ aggregates and seeds
